Laboratory results from patent publication US5744621A, “Irreversible HIV protease inhibitors, intermediates, compositions and processes for the preparation thereof” (Lucky Limited., priority 1992, dated 1998).

Molecular target: T1, HIV-1 protease (Human immunodeficiency virus type 1 group M subtype B, UniProt P04585)
T1 construct: 2.6 nM of HIV-1 protease
Experiment: Assay for inhibitory effect on HIV protease (residual enzyme activity, HPLC of substrate cleavage)
Assay type: biochemical
Settings: for Ki / kinact: HIV-1 protease 2.6 nM; for Ki / kinact / kinact/KI: pH 5.5; for Ki: inhibition constant; for kinact: rate constant of covalent bond formation, read-out: kina (converted); for kinact/KI: second order rate constant, HIV-1 protease, read-out: kina /KI (converted)
Protocol: The inhibitory effect on HIV protease of the compounds of the present invention was determined by the following method.
To a buffer solution comprising 50 mM sodium acetate, pH 5.5, 1 mM dithiothreitol(DTT), 1 mM ethylenediaminetetraacetate (EDTA), 0.75M ammonium sulfate, 0.2M sodium chloride and 0.1% NP40(NONIDET P-40; Sigma Chemical Co., U.S.A.), were added various concentrations of a compound selected from Compound Nos. 1 to 92 to prepare a preincubation solution. Inhibition reaction was started with the addition of 2.6 nM of HIV-1 protease to the preincubation solution. Each 10 μl of the reaction solution was taken at a given time interval and added to 80 μl of assay solution containing 100 μM of reaction substrate in the same buffer solution as above to assay for the residual enzyme activity. In this context, an oligopeptide(KM =20 μM) consisting of 11 amino acids, i.e., Ser-Ile-Ala-Glu-(p-NO2)-Phe-Leu-Val-Arg-Ala-Lys-His, was used as a reaction substrate, which oligopeptide was to be cleaved in two by the breakage of amide bond between (P--NO2)-Phe and Leu upon the attack of HIV protease. The reaction rate was determined by subjecting the substrate before the reaction and the product after the reaction to HPLC separation and then measuring the relative amount of the product, using the strong absorbance of (p--NO2)-Phe at 280 nm. The amount of reduction in enzyme activity according to the elapsed time were measured and the natural logarithmic values(ln) of the measured amounts were plotted against time to obtain a linear graph and kobs was calculated from the slope of the linear graph.
The inhibition constant was calculated according to the following equation: [formula] wherein: kobs is a rate constant indicating the rate of reduction in enzyme activity according to the elapsed time under the presence of a given concentration of inhibitor,
kina is a rate constant indicating the rate of chemical reaction forming covalent bond between an enzyme and an inhibitor in Michaelis-Menten complex,
KI is an inhibition constant indicating the dissociation rate of Michaelis-Menten complex into an enzyme and an inhibitor, and
[I] means the inhibitor concentration.
The above equation is applicable to an experiment carried out under the condition in which the concentration of inhibitor is far higher than that of enzyme(Steady State Kinetic). […] The inhibition constants KI and kina and second order rate constant kina /KI were obtained by inputting the value of [E]/([E]+[EI]+[EI']) into KINSIM/FITSIM program. FIG. 1 exemplifies a result of the experiment determining the binding ratio of enzymes and inhibitors, which result was obtained by reacting the enzyme and the inhibitor in various concentration ratios for a sufficient time period(at least for 30 minutes), and then plotting the relative activity of the remaining enzyme against [conc. of inhibitor]/[conc. of enzyme].

Row | Molecule | Ki | kinact | kinact/KI | Km (oligopeptide substrate of 11 amino acids, read-out: KM of reaction substrate)
1 | CC[C@H](C)[C@H](NC(=O)C[C@@H]1O[C@@H]1[C@H](Cc1ccccc1)NC(=O)[C@@H](NC(=O)OCc1ccccn1)C(C)C)C(=O)OC [compound 38, N-{N-L-[[N-(2-pyridylmethoxycarbonyl)-L-valinyl)-amino]-(4R,3S)-epoxy-6-phenyl-hexanoyl}-L-isoleucine methyl ester] | > 10000 nM | – | – | –
2 | CC(C)C[C@H](NC(=O)[C@H](CC(N)=O)NC(=O)OCc1ccccc1)[C@H]1O[C@H]1CCc1ccccc1 [compound 56, 5-L-(N-benzyloxycarbonyl-L-asparaginyl)amino-(3S,4R)-epoxy-7-methyl-1-phenyloctane] | 44400 nM | 0.00483 s⁻¹ | 108 M⁻¹ s⁻¹ | –
3 | COC(=O)C(NC(=O)C(CCC(N)=O)NC(=O)C[C@@H]1O[C@@H]1[C@H](Cc1ccccc1)NC(=O)[C@H](CC(N)=O)NC(=O)COc1cccc2ccccc12)C(C)C (some centres unmarked) [compound 16] | 420 nM | 0.0025 s⁻¹ | 6000 M⁻¹ s⁻¹ | –
4 | NC(=O)C[C@H](NC(=O)COc1ccccc1)C(=O)N[C@@H](Cc1ccccc1)[C@H]1O[C@H]1CCc1ccccc1 [compound 57, 2-L-(N-phenoxyacetyl-L-asparaginyl)amino-(3R,4S)-epoxy-1,6-diphenylhexane] | 12500 nM | 0.0015 s⁻¹ | 120 M⁻¹ s⁻¹ | –
5 | Ser-Ile-Ala-Glu-(p-NO2)-Phe-Leu-Val-Arg-Ala-Lys-His [reference compound] | – | – | – | 20 µM
6 | NC(=O)C[C@H](NC(=O)c1ccc2ccccc2n1)C(=O)N[C@@H](Cc1ccccc1)[C@H]1O[C@H]1CNC(=O)[C@H](Cc1ccccc1)NC=O [compound 92] | 1400 nM | 0.00333 s⁻¹ | 2330 M⁻¹ s⁻¹ | –
7 | NC(=O)C[C@H](NC(=O)[C@H](Cc1ccccc1)NC(=O)OCc1ccccc1)C(=O)N[C@@H](Cc1ccccc1)[C@H]1O[C@H]1CCc1ccccc1 [compound 68, 2-L-[N-(N-benzyloxycarbonyl-L-phenylalanyl)-L-asparaginyl]amino-(3R,4S)-epoxy-1,6-diphenylhexane] | 4000 nM | 0.000667 s⁻¹ | 167 M⁻¹ s⁻¹ | –
8 | CC(C)[C@H](NC=O)C(=O)NC[C@@H]1O[C@@H]1[C@H](Cc1ccccc1)NC(=O)[C@H](CC(N)=O)NC(=O)c1ccc2ccccc2n1 [compound 88] | 850 nM | 0.0367 s⁻¹ | 43300 M⁻¹ s⁻¹ | –
9 | NC(=O)CC[C@H](NC(=O)OCc1ccccc1)C(=O)N[C@@H](Cc1ccccc1)[C@H]1O[C@H]1CCc1ccccc1 [compound 55, 2-L-(N-benzyloxycarbonyl-L-glutaminyl)amino-(3R,4S)-epoxy-1,6-diphenylhexane] | 2200 nM | 0.00367 s⁻¹ | 1670 M⁻¹ s⁻¹ | –
10 | CC[C@H](C)[C@H](NC(=O)C[C@@H]1O[C@@H]1[C@H](Cc1ccccc1)NC(=O)[C@H](CC(N)=O)NC(=O)COc1ccccc1)C(=O)OC [compound 4] | 60 nM | 0.0015 s⁻¹ | 25000 M⁻¹ s⁻¹ | –
11 | NC(=O)C[C@H](NC(=O)c1ccc2ccccc2[n+]1[O-])C(=O)N[C@@H](Cc1ccccc1)[C@H]1O[C@H]1CCc1ccccc1 [compound 64, 2-L-[N-(N-oxy)quinoline-2-yl-carbonyl-L-asparaginyl]amino-(3R,4S)-epoxy-1,6-diphenylhexane] | 3600 nM | 0.0015 s⁻¹ | 417 M⁻¹ s⁻¹ | –
12 | CC[C@H](C)[C@H](NC(=O)C[C@@H]1O[C@@H]1[C@H](CC1CCCCC1)NC(=O)[C@H](CC(N)=O)NC(=O)c1ccc2ccccc2n1)C(=O)OC [compound 5] | 92 nM | 0.00333 s⁻¹ | 36700 M⁻¹ s⁻¹ | –
13 | CC(C)(C)OC(=O)N[C@@H](Cc1ccccc1)[C@H]1O[C@H]1CCc1ccccc1 [compound 51, 2-L-(t-butoxycarbonyl)amino-(3R,4S)-epoxy-1,6-diphenylhexane] | 7000 nM | 0.000833 s⁻¹ | 118 M⁻¹ s⁻¹ | –
14 | NC(=O)C[C@H](NC(=O)c1ccc2ccccc2n1)C(=O)N[C@@H](Cc1ccccc1)[C@H]1O[C@H]1CNC(=O)[C@@H](NC=O)c1ccccc1 [compound 91] | 1200 nM | 0.005 s⁻¹ | 4170 M⁻¹ s⁻¹ | –
15 | CCC(C)[C@H](NC=O)C(=O)NC[C@@H]1O[C@@H]1[C@H](Cc1ccccc1)NC(=O)[C@H](CC(N)=O)NC(=O)c1ccc2ccccc2n1 (some centres unmarked) [compound 90] | 140 nM | 0.00667 s⁻¹ | 48300 M⁻¹ s⁻¹ | –
16 | NC(=O)C[C@H](NC(=O)[C@H](Cc1ccccc1)NC(=O)CCN1CCOCC1)C(=O)N[C@@H](Cc1ccccc1)[C@H]1O[C@H]1CCc1ccccc1 [compound 66, 2-L-[N-(N-morpholinepropanecarbonyl-L-phenylalanyl)-L-asparaginyl]amino-(3R,4S)-epoxy-1,6-diphenylhexane] | 550 nM | 0.0128 s⁻¹ | 23300 M⁻¹ s⁻¹ | –
17 | CNC(=O)[C@@H](NC(=O)C[C@@H]1O[C@@H]1[C@H](Cc1ccccc1)NC(=O)[C@H](CC(N)=O)NC(=O)c1ccc2ccccc2n1)C(C)C [compound 30] | 22 nM | 0.00333 s⁻¹ | 183000 M⁻¹ s⁻¹ | –
18 | CC(C)CC[C@@H]1O[C@@H]1[C@H](Cc1ccccc1)NC(=O)[C@H](CC(N)=O)NC(=O)OCc1ccccc1 [compound 69, 2-L-(N-benzyloxycarbonyl-L-asparagyl)amino-(3R,4S)-epoxy-7-methyl-1-phenyloctane] | 550 nM | 0.001 s⁻¹ | 1830 M⁻¹ s⁻¹ | –
19 | CC(C)[C@H](NC(=O)OCc1cccnc1)C(=O)NC[C@@H]1O[C@@H]1[C@H](Cc1ccccc1)NC(=O)[C@@H](NC(=O)OCc1cccnc1)C(C)C [compound 78] | 720 nM | 0.00167 s⁻¹ | 2330 M⁻¹ s⁻¹ | –
20 | CC(C)[C@H](NC(=O)OCc1ccncc1)C(=O)NC[C@@H]1O[C@@H]1[C@H](Cc1ccccc1)NC(=O)[C@@H](NC(=O)OCc1ccncc1)C(C)C [compound 79] | 3000 nM | 0.00167 s⁻¹ | 550 M⁻¹ s⁻¹ | –
21 | CC(C)[C@H](NC(=O)N(C)Cc1ccccc1)C(=O)NC[C@@H]1O[C@@H]1[C@H](Cc1ccccc1)NC(=O)[C@@H](NC(=O)N(C)Cc1ccccc1)C(C)C [compound 81, 4S-1,4-bis[N-[(N'-benzylmethylamino)carbonyl-L-valinyl]amino]-5-phenyl-(2S,3R)-(Z)-epoxypentane] | > 10000 nM | – | – | –
22 | NC(=O)C[C@H](NC(=O)COc1ccc(F)cc1F)C(=O)N[C@@H](Cc1ccccc1)[C@H]1O[C@H]1CCc1ccccc1 [compound 58, 2-L-[N-(2,4-difluoro)phenoxyacetyl-L-asparaginyl]amino-(3R,4S)-epoxy-1,6-diphenylhexane] | 3300 nM | 0.0005 s⁻¹ | 152 M⁻¹ s⁻¹ | –
23 | CC[C@H](C)[C@H](NC(=O)OCc1ccccc1)C(=O)N[C@@H](Cc1ccccc1)[C@H]1O[C@H]1CCc1ccccc1 [compound 54, 2-L-(N-benzyloxycarbonyl-L-isoleucinyl)amino-(3R,4S)-epoxy-1,6-diphenylhexane] | 1000 nM | 0.0075 s⁻¹ | 7500 M⁻¹ s⁻¹ | –
24 | C[C@H](NC(=O)OCc1ccccc1)C(=O)N[C@@H](CC(N)=O)C(=O)N[C@@H](Cc1ccccc1)[C@H]1O[C@H]1CCc1ccccc1 [compound 67, 2-L-[N-(N-benzyloxycarbonyl-L-alanyl)-L-asparaginyl]amino-(3R,4S)-epoxy-1,6-diphenylhexane] | 260 nM | 0.00117 s⁻¹ | 4500 M⁻¹ s⁻¹ | –
25 | CC[C@H](C)[C@H](NC(=O)C[C@@H]1O[C@@H]1[C@H](Cc1ccccc1)NC(=O)[C@H](CC(N)=O)NC(=O)c1ccc2ccccc2n1)C(=O)N1CCOCC1 [compound 29] | > 10000 nM | – | – | –
26 | CONC(=O)[C@@H](NC(=O)C[C@@H]1O[C@@H]1[C@H](Cc1ccccc1)NC(=O)[C@H](CC(N)=O)NC(=O)c1ccc2ccccc2n1)C(C)C [compound 34] | 15 nM | 0.00267 s⁻¹ | 183000 M⁻¹ s⁻¹ | –
27 | O=C(O)CC[C@H](NC(=O)OCc1ccccc1)C(=O)NC[C@@H]1O[C@@H]1[C@H](Cc1ccccc1)NC(=O)[C@H](CCC(=O)O)NC(=O)OCc1ccccc1 [compound 74, 4S-1,4-bis[N-(N'-benzyloxycarbonyl-L-glutamic acidyl)amino]-5-phenyl-(2S,3R)-(Z)-epoxypentane] | > 10000 nM | – | – | –
